One data set can be described thus: Enzyme substrate degradation in culture media at various temperatures (fluorescence). The class given is physicochemical. The settings on record: pH 6 culture media, 0.3 mg/mL, 70° C. dry heat block 15 min. As to the method: Culture media was prepared by dissolving 5 g/L peptone C (BD 211921) and 12 g/L phytone peptone (BD BBL 211906) in deionized water. The pH was adjusted with 1 N NaOH or 0.1 N HCl, the media brought to volume, and then filter sterilized with a 0.22 micron PES filter. Stock solutions ([…]) of 8′-fluoro-4′-methylumbelliferyl-α-D-glucopyranoside, 6′-fluoro-4′-methylumbelliferyl-α-D-glucopyranoside, and 4-methylumbelliferyl-α-D-glucopyranoside were prepared in DMSO. The aforementioned substrates were added to culture media at a final concentration of 0.1 mg/ml and media were then 0.22 μm filter sterilized.
(§1) One milliliter of filter-sterilized culture media (pH 6) containing 0.3 mg/ml of 8′-fluoro-4′-methylumbelliferyl-[…]-D-glucopyranoside substrate was transferred to three 1.5 ml microcentrifuge tubes. One of the 1.5 ml tubes was kept at room temperature (24.5° C.). The second tube was placed in a 70° C. dry heat block for 15 min and the third tube was placed in a 100° C. heat block for 15 min. Tubes were kept at room temperature for 30 min following heat exposure, briefly vortexed and centrifuged to collect liquid. One hundred microliters of culture media with substrate from each of the tubes was transferred to two wells (100 microliters per well) of a black 96-well microtiter plate with (NUNC #165301, Thermo Fisher Scientific). The top of the plate was covered with an optically clear sealing film (product #4311971, Applied Biosystems Corporation). Fluorescence readings (360 nm excitation/455 nm emission at 50% gain) were taken from the top of the plate.
(§2) The tube exposed to 100° C. (with 800 ul of remaining media with substrate) was exposed for a second time to 100° C. for 15 min in a dry heat block. One hundred microliters of culture media with substrate from the tube was transferred to two wells (100 microliters per well) of a black 96-well microtiter plate with (NUNC #165301, Thermo Fisher Scientific). The top of the plate was covered with an optically clear sealing film (product #4311971, Applied Biosystems Corporation). Fluorescence readings (360 nm excitation/455 nm emission at 50% gain) were taken from the top of the plate. In Table 9, the mean fluorescence values detected (RFU) for each of the heating conditions are reported.
as §1, with “7)” for “6)”
as §2, with “10,” for “9,”, “reported. […]” for “reported.”
With `Cc1cc(=O)oc2cc(O[C@H]3O[C@H](CO)[C@@H](O)[C@H](O)[C@H]3O)c(F)cc12` [Example 6F-MUG, 6′-Fluoro-4′-methylumbelliferyl […]-D-glucopyranoside], the “MEASURED FLUORESCENCE, RFU 70° C. 15 min” value amounted to 932.5 RFU.

Staying with this data set, now noted: pH 6 culture media, 0.3 mg/mL, 100° C. 15 min, second time 15 min.
Turning to `Cc1cc(=O)oc2cc(O[C@H]3O[C@H](CO)[C@@H](O)[C@H](O)[C@H]3O)c(F)cc12` [Example 6F-MUG, 6′-Fluoro-4′-methylumbelliferyl […]-D-glucopyranoside], the “MEASURED FLUORESCENCE, RFU 100° C. 15 + 15 min” value was determined as 2005 RFU.

Still in this data set, the particulars now being: pH 6 culture media, 0.3 mg/mL, 100° C. heat block 15 min.
Take `Cc1cc(=O)oc2cc(O[C@H]3O[C@H](CO)[C@@H](O)[C@H](O)[C@H]3O)c(F)cc12` [Example 6F-MUG, 6′-Fluoro-4′-methylumbelliferyl […]-D-glucopyranoside]: the “MEASURED FLUORESCENCE, RFU 100° C. 15 min” value is 1486.5 RFU.

Still in this data set, the particulars now being: pH 6 culture media, 0.3 mg/mL, no spores, room temperature (24.5° C.), 360 nm excitation/455 nm emission.
As to `Cc1cc(=O)oc2cc(O[C@H]3O[C@H](CO)[C@@H](O)[C@H](O)[C@H]3O)c(F)cc12` [Example 6F-MUG, 6′-Fluoro-4′-methylumbelliferyl […]-D-glucopyranoside], the “MEASURED FLUORESCENCE, RFU RT 15 min” value is 897.5 RFU.

The data set is the same for the next values; noted with them: pH 7 culture media, 0.3 mg/mL, 70° C. dry heat block 15 min.
Consider `Cc1cc(=O)oc2cc(O[C@H]3O[C@H](CO)[C@@H](O)[C@H](O)[C@H]3O)c(F)cc12` [Example 6F-MUG, 6′-Fluoro-4′-methylumbelliferyl […]-D-glucopyranoside], for which the “MEASURED FLUORESCENCE, RFU 70° C. 15 min” value turned out to be 1012 RFU.

Staying with this data set, now noted: pH 7 culture media, 0.3 mg/mL, 100° C. 15 min, second time 15 min.
In the case of `Cc1cc(=O)oc2cc(O[C@H]3O[C@H](CO)[C@@H](O)[C@H](O)[C@H]3O)c(F)cc12` [Example 6F-MUG, 6′-Fluoro-4′-methylumbelliferyl […]-D-glucopyranoside], the “MEASURED FLUORESCENCE, RFU 100° C. 15 + 15 min” value was determined as 2654.5 RFU.

The same data set, now with this note: pH 7 culture media, 0.3 mg/mL, 100° C. heat block 15 min.
With `Cc1cc(=O)oc2cc(O[C@H]3O[C@H](CO)[C@@H](O)[C@H](O)[C@H]3O)c(F)cc12` [Example 6F-MUG, 6′-Fluoro-4′-methylumbelliferyl […]-D-glucopyranoside], the “MEASURED FLUORESCENCE, RFU 100° C. 15 min” value is listed as 1690.5 RFU.

Staying with this data set, now noted: pH 7 culture media, 0.3 mg/mL, room temperature (24.5° C.).
With `Cc1cc(=O)oc2cc(O[C@H]3O[C@H](CO)[C@@H](O)[C@H](O)[C@H]3O)c(F)cc12` [Example 6F-MUG, 6′-Fluoro-4′-methylumbelliferyl […]-D-glucopyranoside], the “MEASURED FLUORESCENCE, RFU RT 15 min” value was 924.5 RFU.

Staying with this data set, now noted: pH 8 culture media, 0.3 mg/mL, 70° C. dry heat block 15 min.
For the compound `Cc1cc(=O)oc2cc(O[C@H]3O[C@H](CO)[C@@H](O)[C@H](O)[C@H]3O)c(F)cc12` [Example 6F-MUG, 6′-Fluoro-4′-methylumbelliferyl […]-D-glucopyranoside], the “MEASURED FLUORESCENCE, RFU 70° C. 15 min” value is recorded as 1079.5 RFU.

Still in this data set, the particulars now being: pH 8 culture media, 0.3 mg/mL, 100° C. 15 min, second time 15 min.
As for `Cc1cc(=O)oc2cc(O[C@H]3O[C@H](CO)[C@@H](O)[C@H](O)[C@H]3O)c(F)cc12` [Example 6F-MUG, 6′-Fluoro-4′-methylumbelliferyl […]-D-glucopyranoside], the “MEASURED FLUORESCENCE, RFU 100° C. 15 + 15 min” value was determined as 3160.5 RFU.

Staying with this data set, now noted: pH 8 culture media, 0.3 mg/mL, 100° C. heat block 15 min.
As to `Cc1cc(=O)oc2cc(O[C@H]3O[C@H](CO)[C@@H](O)[C@H](O)[C@H]3O)c(F)cc12` [Example 6F-MUG, 6′-Fluoro-4′-methylumbelliferyl […]-D-glucopyranoside], the “MEASURED FLUORESCENCE, RFU 100° C. 15 min” value was determined as 2121.5 RFU.

The same data set, now with this note: pH 8 culture media, 0.3 mg/mL, room temperature (24.5° C.).
As to `Cc1cc(=O)oc2cc(O[C@H]3O[C@H](CO)[C@@H](O)[C@H](O)[C@H]3O)c(F)cc12` [Example 6F-MUG, 6′-Fluoro-4′-methylumbelliferyl […]-D-glucopyranoside], the “MEASURED FLUORESCENCE, RFU RT 15 min” value turned out to be 983 RFU.

The same data set, now with this note: pH 9 culture media, 0.3 mg/mL, 70° C. dry heat block 15 min.
Turning to `Cc1cc(=O)oc2cc(O[C@H]3O[C@H](CO)[C@@H](O)[C@H](O)[C@H]3O)c(F)cc12` [Example 6F-MUG, 6′-Fluoro-4′-methylumbelliferyl […]-D-glucopyranoside], the “MEASURED FLUORESCENCE, RFU 70° C. 15 min” value is on record as 1218 RFU.

The same data set, now with this note: pH 9 culture media, 0.3 mg/mL, 100° C. 15 min, second time 15 min.
Turning to `Cc1cc(=O)oc2cc(O[C@H]3O[C@H](CO)[C@@H](O)[C@H](O)[C@H]3O)c(F)cc12` [Example 6F-MUG, 6′-Fluoro-4′-methylumbelliferyl […]-D-glucopyranoside], the “MEASURED FLUORESCENCE, RFU 100° C. 15 + 15 min” value stood at 3964 RFU.

Still in this data set, the particulars now being: pH 9 culture media, 0.3 mg/mL, 100° C. heat block 15 min.
As for `Cc1cc(=O)oc2cc(O[C@H]3O[C@H](CO)[C@@H](O)[C@H](O)[C@H]3O)c(F)cc12` [Example 6F-MUG, 6′-Fluoro-4′-methylumbelliferyl […]-D-glucopyranoside], the “MEASURED FLUORESCENCE, RFU 100° C. 15 min” value is 2728 RFU.

Staying with this data set, now noted: pH 9 culture media, 0.3 mg/mL, room temperature (24.5° C.).
Take `Cc1cc(=O)oc2cc(O[C@H]3O[C@H](CO)[C@@H](O)[C@H](O)[C@H]3O)c(F)cc12` [Example 6F-MUG, 6′-Fluoro-4′-methylumbelliferyl […]-D-glucopyranoside]: the “MEASURED FLUORESCENCE, RFU RT 15 min” value is given as 994.5 RFU.

Source of the values: patent publication US12486301B2, “8-fluoro-4-alkylumbelliferyl α-D-glucopyranoside, biological sterilization indicator including the same and its use in a method of determining efficacy of a sterilization process” (Solventum Intellectual Properties Company, priority 2019, dated 2025).
